Paper PMC4207543 (Journal of Medicinal Chemistry, 2014)
In brackets after ≈: the same amount, converted by molar mass. Like-named read-outs stand apart in the source and are kept apart here.

What was measured:
[1] = biological target: S. aureus topoisomerase IV (Staphylococcus aureus, UniProt P0C1S7+P0C1U9); assay: S. aureus topoisomerase IV decatenation assay; assay type: biochemical
[2] = tested on: methicillin-resistant (MRSA), vancomycin-intermediate (VISA), vancomycin-resistant (VRSA) S. aureus, fluoroquinolone resistant strains; assay type: cell-based, Staphylococcus aureus; conditions: toward MRSA, VRSA S. aureus and fluoroquinolone resistant strains
S. aureus DNA gyrase = S. aureus DNA gyrase (Staphylococcus aureus, UniProt P0A0K8+P20831); assay: S. aureus DNA gyrase supercoiling assay; assay type: biochemical; conditions: tested at 100 μM, gel (Figure 4B)
S. aureus strain UAMS-1 = assay: microbe, parasite or virus in culture; assay type: cell-based, Staphylococcus aureus; conditions: for fold reduction in activity compared to 4g: S. aureus MIC; for MIC: Staphylococcus aureus, UAMS1, 16 h, read-out: S. aureus MIC, strain UAMS-1, planktonic cells, MHB, 37 °C, 16 h
S. aureus RNase J2 = S. aureus RNase J2 activity; assay type: biochemical; conditions: data not shown
S. aureus RnpA = biological target: T1, S. aureus RnpA (Staphylococcus aureus, UniProt P0A0H5); assay: S. aureus RnpA activity; assay type: biochemical; conditions: data not shown
T1 sequence (P0A0H5 1-117): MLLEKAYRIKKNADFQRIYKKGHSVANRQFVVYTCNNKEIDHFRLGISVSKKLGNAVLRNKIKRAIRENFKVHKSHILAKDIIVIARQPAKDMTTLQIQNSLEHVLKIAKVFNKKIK

[3] = strain UAMS-1, compared to the hit 1a

S. aureus DNA gyrase, sequence (P20831 whole entry): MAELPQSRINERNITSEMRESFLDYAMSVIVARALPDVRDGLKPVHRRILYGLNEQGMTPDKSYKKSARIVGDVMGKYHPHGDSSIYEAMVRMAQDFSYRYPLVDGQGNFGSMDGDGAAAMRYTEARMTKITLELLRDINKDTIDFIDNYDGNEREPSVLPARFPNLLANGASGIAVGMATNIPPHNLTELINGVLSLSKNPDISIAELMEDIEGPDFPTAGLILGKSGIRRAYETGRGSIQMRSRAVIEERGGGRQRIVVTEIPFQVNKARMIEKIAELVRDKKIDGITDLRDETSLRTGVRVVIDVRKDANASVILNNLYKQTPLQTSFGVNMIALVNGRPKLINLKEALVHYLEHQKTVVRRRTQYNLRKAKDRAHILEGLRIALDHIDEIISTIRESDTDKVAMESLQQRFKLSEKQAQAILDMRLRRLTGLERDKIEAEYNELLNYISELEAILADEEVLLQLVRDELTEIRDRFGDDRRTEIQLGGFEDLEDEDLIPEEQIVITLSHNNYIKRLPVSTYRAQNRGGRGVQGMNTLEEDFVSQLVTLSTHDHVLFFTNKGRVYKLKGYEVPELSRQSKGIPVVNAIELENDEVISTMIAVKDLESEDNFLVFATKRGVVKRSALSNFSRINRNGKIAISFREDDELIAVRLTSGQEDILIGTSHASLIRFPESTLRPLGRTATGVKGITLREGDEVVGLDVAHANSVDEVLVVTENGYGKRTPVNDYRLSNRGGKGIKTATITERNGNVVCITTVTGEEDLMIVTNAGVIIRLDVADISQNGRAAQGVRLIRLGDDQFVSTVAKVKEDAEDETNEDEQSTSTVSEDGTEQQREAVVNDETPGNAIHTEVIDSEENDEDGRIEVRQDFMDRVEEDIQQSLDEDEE
S. aureus DNA gyrase, sequence (P0A0K8 whole entry): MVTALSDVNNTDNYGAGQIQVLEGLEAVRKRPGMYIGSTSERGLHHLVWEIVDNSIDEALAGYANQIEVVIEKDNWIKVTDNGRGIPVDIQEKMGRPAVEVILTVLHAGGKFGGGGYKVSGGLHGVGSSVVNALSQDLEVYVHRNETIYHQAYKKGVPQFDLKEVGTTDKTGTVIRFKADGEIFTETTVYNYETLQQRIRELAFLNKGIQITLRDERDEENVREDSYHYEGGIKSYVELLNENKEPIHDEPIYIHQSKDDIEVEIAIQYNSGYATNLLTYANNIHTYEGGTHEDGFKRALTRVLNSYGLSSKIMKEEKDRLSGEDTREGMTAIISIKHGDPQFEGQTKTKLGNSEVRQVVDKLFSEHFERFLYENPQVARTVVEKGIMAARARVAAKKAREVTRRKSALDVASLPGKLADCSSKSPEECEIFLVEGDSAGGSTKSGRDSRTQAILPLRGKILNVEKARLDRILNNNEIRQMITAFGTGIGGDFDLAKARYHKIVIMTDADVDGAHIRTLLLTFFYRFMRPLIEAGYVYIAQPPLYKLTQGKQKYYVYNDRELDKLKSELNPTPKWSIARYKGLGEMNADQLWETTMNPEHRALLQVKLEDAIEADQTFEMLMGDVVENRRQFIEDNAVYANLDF
S. aureus topoisomerase IV, sequence (P0C1U9 whole entry): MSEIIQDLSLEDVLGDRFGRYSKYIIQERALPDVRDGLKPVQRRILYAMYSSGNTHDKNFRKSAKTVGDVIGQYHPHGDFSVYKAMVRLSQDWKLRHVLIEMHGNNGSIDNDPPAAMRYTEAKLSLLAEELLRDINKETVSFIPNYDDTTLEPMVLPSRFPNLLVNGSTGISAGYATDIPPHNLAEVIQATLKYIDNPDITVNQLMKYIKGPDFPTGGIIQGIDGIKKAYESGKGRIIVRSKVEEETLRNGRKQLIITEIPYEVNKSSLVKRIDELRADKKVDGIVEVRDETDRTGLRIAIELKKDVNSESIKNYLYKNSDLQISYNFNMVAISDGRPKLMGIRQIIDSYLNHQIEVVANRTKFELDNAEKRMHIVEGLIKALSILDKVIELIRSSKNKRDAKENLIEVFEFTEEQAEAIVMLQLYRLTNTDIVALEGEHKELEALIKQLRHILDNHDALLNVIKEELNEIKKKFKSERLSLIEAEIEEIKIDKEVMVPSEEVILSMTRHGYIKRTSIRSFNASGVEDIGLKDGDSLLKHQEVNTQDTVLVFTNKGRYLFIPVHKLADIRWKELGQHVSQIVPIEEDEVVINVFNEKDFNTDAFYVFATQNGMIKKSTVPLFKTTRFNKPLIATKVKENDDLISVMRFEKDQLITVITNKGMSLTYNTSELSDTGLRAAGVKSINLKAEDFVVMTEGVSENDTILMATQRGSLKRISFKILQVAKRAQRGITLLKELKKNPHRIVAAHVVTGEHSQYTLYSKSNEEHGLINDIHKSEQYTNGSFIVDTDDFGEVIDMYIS
S. aureus topoisomerase IV, sequence (P0C1S7 whole entry): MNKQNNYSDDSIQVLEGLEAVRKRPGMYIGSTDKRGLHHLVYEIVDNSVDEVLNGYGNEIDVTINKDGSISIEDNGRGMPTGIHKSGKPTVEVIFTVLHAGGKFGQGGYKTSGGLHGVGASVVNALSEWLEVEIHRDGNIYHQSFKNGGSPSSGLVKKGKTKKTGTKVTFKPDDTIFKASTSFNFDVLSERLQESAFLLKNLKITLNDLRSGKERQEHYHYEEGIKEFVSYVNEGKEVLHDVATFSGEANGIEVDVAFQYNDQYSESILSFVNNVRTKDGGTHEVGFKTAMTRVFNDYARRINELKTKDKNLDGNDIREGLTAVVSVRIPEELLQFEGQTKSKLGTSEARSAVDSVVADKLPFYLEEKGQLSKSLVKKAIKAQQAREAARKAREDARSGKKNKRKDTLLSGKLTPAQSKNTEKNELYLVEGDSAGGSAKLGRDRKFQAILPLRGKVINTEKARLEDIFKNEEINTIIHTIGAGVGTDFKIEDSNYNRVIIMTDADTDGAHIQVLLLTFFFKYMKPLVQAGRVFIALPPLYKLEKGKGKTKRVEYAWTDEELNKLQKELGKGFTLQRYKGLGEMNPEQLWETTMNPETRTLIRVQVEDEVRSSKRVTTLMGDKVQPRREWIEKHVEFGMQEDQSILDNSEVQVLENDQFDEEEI

COc1ccc(CCN2CCC(C(O)(c3ccccc3)c3ccccc3)CC2)cc1 [3g, (1-(4-Methoxyphenethyl)piperidin-4-yl)diphenylmethanol]
IC50 [1]: > 333 µM

OC(c1ccccc1)(c1ccccc1)C1CCN(CCCOc2ccc(-c3ccccc3)cc2)CC1 [compound 6, (1-(3-([1,1′-Biphenyl]-4-yloxy)propyl)piperidin-4-yl)diphenylmethanol]
MIC [2]: approximately 2 μg/mL
inhibition of S. aureus DNA gyrase supercoiling activity in comparison to terfenadine (S. aureus DNA gyrase): improved inhibition

O=C(O)c1ccc(C(O)CCCN2CCC(C(O)(c3ccccc3)c3ccccc3)CC2)cc1 (stereo not drawn) [1m, 4-(1-Hydroxy-4-(4-(hydroxydiphenylmethyl)piperidin-1-yl)butyl)benzoic Acid]
S. aureus antimicrobial activity (in words) (S. aureus strain UAMS-1; [3]): loss of antimicrobial activity

CC(C)(C)c1ccc(C(O)CCCN2CCC(C(O)c3ccccc3)CC2)cc1 (stereo not drawn) [5a, 1-(4-(tert-Butyl)phenyl)-4-(4-(hydroxy(phenyl)methyl)piperidin-1-yl)butan-1-ol]
IC50 [1]: > 333 µM

OC(c1ccccc1)(c1ccccc1)C1CCN(Cc2ccc(-c3ccccc3)cc2)CC1 [4g, (1-([1,1′-Biphenyl]-4-ylmethyl)piperidin-4-yl)diphenylmethanol]
inhibition of S. aureus DNA gyrase supercoiling activity in comparison to terfenadine (S. aureus DNA gyrase): improved inhibition

CC(C)(C)c1ccc(C(O)CCCN2CCC(Cc3ccccc3)CC2)cc1 (stereo not drawn) [5b, 4-(4-Benzylpiperidin-1-yl)-1-(4-(tert-butyl)phenyl)butan-1-ol]
IC50 [1]: > 333 µM

OC(c1ccccc1)(c1ccccc1)C1CCN(Cc2ccc(-c3ccco3)cc2)CC1 [4ii, (1-(4-(Furan-2-yl)benzyl)piperidin-4-yl)diphenylmethanol]
fold reduction in activity compared to 4g (S. aureus strain UAMS-1): 4– 8 fold

OC(c1ccccc1)(c1ccccc1)C1CCN(CCc2ccc(F)cc2)CC1 [3c, (1-(4-Fluorophenethyl)piperidin-4-yl)diphenylmethanol]
IC50 [1]: > 333 µM

CC(C)(C)c1ccc(CCN2CCC(C(O)(c3ccccc3)c3ccccc3)CC2)cn1 [3h, (1-(2-(6-(tert-Butyl)pyridin-3-yl)ethyl)piperidin-4-yl)diphenylmethanol]
IC50 [1]: > 333 µM

OC(c1ccccc1)(c1ccccc1)C1CCN(Cc2ccc(-c3cccs3)cc2)CC1 [4gg, (1-(4-(Thiophen-2-yl)benzyl)piperidin-4-yl)diphenylmethanol]
fold reduction in activity compared to 4g (S. aureus strain UAMS-1): 4– 8 fold

OC(c1ccccc1)(c1ccccc1)C1CCN(CCc2ccc(Cl)cc2)CC1 [3d, (1-(4-Chlorophenethyl)piperidin-4-yl)diphenylmethanol]
MIC (S. aureus strain UAMS-1): 16 to 32 µg/mL (≈ 39.4 to 78.8 µM)

CC(C)(C)c1ccc([C@@H](O)CCCN2CCC(C(O)(c3ccccc3)c3ccccc3)CC2)cc1 [2h, (S)-1-(4-(tert-Butyl)phenyl)-4-(4-(hydroxydiphenylmethyl)piperidin-1-yl)butan-1-ol]
S. aureus antimicrobial activity (in words) (S. aureus strain UAMS-1; [3]): no change in activity

OC(c1ccccc1)(c1ccccc1)C1CCN(CCc2ccc(Br)cc2)CC1 [3e, (1-(4-Bromophenethyl)piperidin-4-yl)diphenylmethanol]
MIC (S. aureus strain UAMS-1): 16 to 32 µg/mL (≈ 35.5 to 71 µM)

CC1(c2ccc(CCN3CCC(C(O)(c4ccccc4)c4ccccc4)CC3)cc2)COC1 [3o, (1-(4-(3-Methyloxetan-3-yl)phenethyl)piperidin-4-yl)diphenylmethanol]
IC50 [1]: > 333 µM

O=C(O)c1cn(C2CC2)c2cc(N3CCNCC3)c(F)cc2c1=O [ciprofloxacin, reference compound]
inhibition of S. aureus DNA gyrase supercoiling activity in comparison to terfenadine (S. aureus DNA gyrase): improved inhibition

CC(C)(C)c1ccc(C(O)CCCN2CCC(C(O)(c3ccccc3)c3ccccc3)CC2)cc1 (stereo not drawn) [1a, 1-(4-(tert-Butyl)phenyl)-4-(4-(hydroxydiphenylmethyl)piperidin-1-yl)butan-1-ol]
effect on activity of S. aureus RNase J2 (S. aureus RNase J2): did not appear to affect the activity
effect on activity of S. aureus RnpA (S. aureus RnpA): did not appear to affect the activity
topoisomerase IV inhibitory activity (in words) ([1]; dose–response gel (Figure 5A)): moderate

CC(C)(C)c1ccc(C(O)CCCN2CCC(C(c3ccccc3)c3ccccc3)CC2)cc1 (stereo not drawn) [5e, 4-(4-Benzhydrylpiperidin-1-yl)-1-(4-(tert-butyl)phenyl)butan-1-ol]
S. aureus antimicrobial activity (in words) (S. aureus strain UAMS-1; [3]): tolerated

OC(c1ccccc1)(c1ccccc1)C1CCN(Cc2ccc(-c3ccoc3)cc2)CC1 [4hh, (1-(4-(Furan-3-yl)benzyl)piperidin-4-yl)diphenylmethanol]
fold reduction in activity compared to 4g (S. aureus strain UAMS-1): 4– 8 fold

COC(=O)C(C)(C)c1ccc(C(O)CCCN2CCC(C(O)(c3ccccc3)c3ccccc3)CC2)cc1 (stereo not drawn) [1o, Methyl 2-(4-(1-Hydroxy-4-(4-(hydroxydiphenylmethyl)piperidin-1-yl)butyl)phenyl)-2-methylpropanoate]
S. aureus antimicrobial activity (in words) (S. aureus strain UAMS-1; [3]): loss of antimicrobial activity

CC(C)(C)c1ccc(C(N)CCCN2CCC(C(O)(c3ccccc3)c3ccccc3)CC2)cc1 (stereo not drawn) [2g, (1-(4-Amino-4-(4-(tert-butyl)phenyl)butyl)piperidin-4-yl)diphenylmethanol]
MIC (S. aureus strain UAMS-1): 16 to 32 µg/mL (≈ 34 to 68 µM)
S. aureus antimicrobial activity (in words) (S. aureus strain UAMS-1; [3]): no change in activity

CN(C)c1ccc(CCN2CCC(C(O)(c3ccccc3)c3ccccc3)CC2)cc1 [3k, (1-(4-(Dimethylamino)phenethyl)piperidin-4-yl)diphenylmethanol]
IC50 [1]: > 333 µM

OC(c1ccccc1)(c1ccccc1)C1CCN(Cc2ccc(-c3ccsc3)cc2)CC1 [4ff]
fold reduction in activity compared to 4g (S. aureus strain UAMS-1): 4– 8 fold

CC(C)(C)c1ccc([C@H](O)CCCN2CCC(C(O)(c3ccccc3)c3ccccc3)CC2)cc1 [2i, (R)-1-(4-(tert-Butyl)phenyl)-4-(4-(hydroxydiphenylmethyl)piperidin-1-yl)butan-1-ol]
S. aureus antimicrobial activity (in words) (S. aureus strain UAMS-1; [3]): no change in activity

CC(C)(C(=O)O)c1ccc(C(O)CCCN2CCC(C(O)(c3ccccc3)c3ccccc3)CC2)cc1 (stereo not drawn) [1p, 2-(4-(1-Hydroxy-4-(4-(hydroxydiphenylmethyl)piperidin-1-yl)butyl)phenyl)-2-methyl propanoic Acid, reference compound]
S. aureus antimicrobial activity (in words) (S. aureus strain UAMS-1): loss of antimicrobial activity

OC(c1ccccc1)(c1ccccc1)C1CCN(CCc2ccc(-c3cccnc3)cc2)CC1 [3n, (1-(4-(Pyridin-3-yl)phenethyl)piperidin-4-yl)diphenylmethanol]
MIC (S. aureus strain UAMS-1): 16 to 32 µg/mL (≈ 35.7 to 71.3 µM)

COc1ccc(C(O)CCCN2CCC(C(O)(c3ccccc3)c3ccccc3)CC2)cc1 (stereo not drawn) [1h, 1-(4-Methoxyphenyl)-4-(4-(hydroxydiphenylmethyl)piperidin-1-yl)butan-1-ol]
S. aureus antimicrobial activity (in words) (S. aureus strain UAMS-1; [3]): loss of antimicrobial activity

COC(=O)c1ccc(C(O)CCCN2CCC(C(O)(c3ccccc3)c3ccccc3)CC2)cc1 (stereo not drawn) [1i, Methyl 4-(1-Hydroxy-4-(4-(hydroxydiphenylmethyl)piperidin-1-yl)butyl)benzoate]
MIC (S. aureus strain UAMS-1): > 256 µg/mL
S. aureus antimicrobial activity (in words) (S. aureus strain UAMS-1; [3]): loss of antimicrobial activity
IC50 [1]: > 333 µM
